{"source": "patent US20110009497A1", "about": "“DRUG-CONTAINING COMPOSITION” (FUJIFILM CORPORATION, priority 2008, published 2011)", "key": {"[1]": {"biological_target": "T1, human vitamin D3 receptor (His-tag fusion protein) (Homo sapiens, UniProt P11473)", "T1 construct": "made in house; host or cells: Escherichia coli BL21 (DE3) Codon-plus, vector pQE30 Xa (QIAGEN)", "T1 sequence (P11473 1-427)": "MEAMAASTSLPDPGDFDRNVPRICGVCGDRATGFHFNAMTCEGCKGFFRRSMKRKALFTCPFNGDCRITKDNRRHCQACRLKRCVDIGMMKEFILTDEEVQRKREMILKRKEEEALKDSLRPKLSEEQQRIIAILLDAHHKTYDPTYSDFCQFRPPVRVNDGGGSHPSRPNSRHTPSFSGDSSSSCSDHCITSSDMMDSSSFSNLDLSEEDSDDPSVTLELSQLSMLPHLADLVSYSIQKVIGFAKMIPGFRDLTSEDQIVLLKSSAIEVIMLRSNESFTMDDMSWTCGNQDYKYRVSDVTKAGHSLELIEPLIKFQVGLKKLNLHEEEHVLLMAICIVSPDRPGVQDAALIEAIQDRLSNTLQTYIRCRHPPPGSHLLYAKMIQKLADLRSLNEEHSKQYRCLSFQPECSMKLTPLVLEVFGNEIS", "assay": "Elution by human serum of vitamin D3 bound to His-tag fusion vitamin D3 receptor protein immobilised on Ni-column, HPLC quantification", "assay_type": "binding", "conditions": "carrier His-tag fusion vitamin D3 receptor protein on Ni-column; 20 ml human serum then 10 ml solution A at 0.1 ml/min", "protocol": "(§1) For culture, an LB (Luria-Bertani) medium containing 100 μg/ml ampicillin was used. Preculture was carried out with the use of a 300-mL LB medium contained in a 500-mL Erlenmeyer flask at 37° C. Then, for main culture, 30 mL of the preculture solution was added to a 1.5-L LB medium (containing 100 μg/ml ampicillin) contained in a 3-L baffled Erlenmeyer flask and subjected to shake culture at 37° C. so as to result in 0.6 OD600. Thereafter, IPTG was added thereto to a final concentration of 0.5 mM for expression induction, followed by overnight shake culture at 30° C. Subsequently, cells were collected by centrifugation and washed. The obtained bacterial cells were suspended in 200 mM NaCl, 50 mM sodium phosphate buffer, and 10 mM imidazole (pH 8.0), followed by ultrasonic disintegration for 5 minutes and centrifugation at 44,200×g for 30 minutes. Thus, the supernatant was obtained. The obtained supernatant was introduced at a flow rate of 0.1 ml/min into an Ni-column (Ni-NTA His-Bind Resin: Novagen; column volume: 50 ml) that had been preliminarily equilibrated with a solution A (300 mM NaCl, 50 mM sodium phosphate buffer, 20 mM imidazole, pH 8.0) for immobilization. […]"}, "[2]": {"biological_target": "T2, human albumin (His-tag fusion protein) (Homo sapiens, UniProt P02768)", "T2 construct": "made in house; host or cells: Escherichia coli BL21 (DE3) Codon-plus, vector pQE30 Xa (QIAGEN)", "T2 sequence (P02768 25-609)": "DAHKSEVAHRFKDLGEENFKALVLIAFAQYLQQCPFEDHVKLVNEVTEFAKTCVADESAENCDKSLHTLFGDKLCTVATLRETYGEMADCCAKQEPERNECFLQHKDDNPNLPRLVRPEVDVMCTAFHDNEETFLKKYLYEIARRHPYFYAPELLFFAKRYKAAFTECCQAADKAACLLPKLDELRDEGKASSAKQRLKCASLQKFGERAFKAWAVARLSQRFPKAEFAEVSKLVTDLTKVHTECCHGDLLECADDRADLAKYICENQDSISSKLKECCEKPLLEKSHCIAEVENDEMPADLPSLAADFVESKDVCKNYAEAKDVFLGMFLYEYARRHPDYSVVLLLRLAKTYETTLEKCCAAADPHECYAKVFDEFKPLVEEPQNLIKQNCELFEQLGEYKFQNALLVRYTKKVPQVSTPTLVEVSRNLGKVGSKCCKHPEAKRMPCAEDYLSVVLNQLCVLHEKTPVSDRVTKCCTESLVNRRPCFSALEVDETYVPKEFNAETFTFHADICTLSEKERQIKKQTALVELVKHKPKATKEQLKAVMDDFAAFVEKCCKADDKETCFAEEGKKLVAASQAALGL", "assay": "Elution by human serum of vitamin D3 bound to His-tag fusion albumin immobilised on Ni-column, HPLC quantification (Comparative Example 1)", "assay_type": "binding", "conditions": "carrier His-tag fusion albumin on Ni-column; human serum 20 ml at 0.1 ml/min, then buffer", "protocol": "as §1, with “A human albumin sequence was expressed with the use of Escherichia coli BL21 (DE3) Codon-plus as a His-tag fusion protein (using a vector (pQE30 Xa; QIAGEN)). For” for “For”"}, "[3]": {"test_system": "osteoporosis model rats (ovariectomized aged rats)", "assay": "Bone regeneration in osteoporosis model rats (ovariectomized aged rats)", "assay_type": "in vivo, rat", "conditions": "calcitriol dissolved with vitamin D3 receptor carrier protein; i.v. 3 times per week, 0.3 μg/kg; four months later", "protocol": "The resultant was allowed to stand still overnight at 22° C. and eluted with a solution A as in the case of Example 1. The eluate was introduced into a benzamidine column (GE Healthcare Bioscience; HiTrap Benzamidine FF (high sub) column) in a general purification step, during which a high-purity vitamin D3 receptor protein was purified. Accordingly, a drug carrier was obtained.\nThe obtained liquid was administered 3 times per week via intravenous injection to osteoporosis model rats (ovariectomized aged rats) such that the calcitriol concentration was maintained at 0.3 μg/kg."}}, "data": [{"smiles": "C=C1CC[C@H](O)C/C1=C/C=C1\\CCC[C@]2(C)[C@@H]([C@H](C)CCCC(C)C)CC[C@@H]12", "note": "[Vitamin D3, vitamin D3]", "values": [{"measurement": "amount of vitamin D3 eluted from the column, of the total amount of bound vitamin", "setting": "[1]", "value": "approximately 5%"}, {"measurement": "amount of vitamin D3 eluted from the column, of the total amount of bound vitamin", "setting": "[2]", "value": "approximately 70%"}]}, {"smiles": "C=C1/C(=C\\C=C2/CCC[C@]3(C)[C@@H]([C@H](C)CCCC(C)(C)O)CC[C@@H]23)C[C@@H](O)C[C@@H]1O", "note": "[calcitriol, 1α,25-dihydroxyvitamin D3]", "values": [{"measurement": "induction of bone regeneration", "setting": "[3]", "value": "induction of bone regeneration in the rats was confirmed"}]}]}
